Results reported in patent publication US8901126B2, “Substituted imidazo[1,5-A]quinoxalin-4-ones are useful for preventing or treating storage dysfunction, voiding dysfunction and bladder/urethral diseases” (priority 2010, dated 2014).
Structures can show the parent of a compound that is named as a salt.

Assays:
[1] = system: urethra relaxation response; test: Simultaneous measurement model for rat bladder contraction/urethra relaxation responses; assay type: in vivo; settings: female SD rat, urethane anesthesia, 1 mg/kg, intravenously or intraduodenally
Source text: That is, a female Sprague-Dawley (SD) rat (Charles River Laboratories Japan, Inc.) was anesthetized with urethane, and the bladder was exposed by a midline incision in the lower abdomen. A double lumen cannula (a cannula having a dual structure by PE190 and PE50) from the bladder apex was inserted into the bladder, and the bladder apex and the cannula were fixed by sutures at a point where the tip reached the proximal urethra. While infusing physiological saline into the urethra through the outer cannula, the urethral inner pressure was measured by a pressure transducer through the inner cannula with a saline solution infused into the urethra through the outer cannula. On the other hand, a single cannula (PE50) was inserted into the bladder from the bladder apex and placed therein. The inner pressure of the bladder was measured through this cannula. After a postoperative stabilization period had passed, physiological saline was infused into the bladder through the cannula of the bladder apex to cause a bladder contraction reaction, and thus cause a urethra relaxation response accompanying the bladder contraction reflex. The test substance was administered intravenously or intraduodenally.

[2] = molecular target: T1, PDE9 (Homo sapiens, UniProt O76083); test: PDE9-inhibiting activity (SPA, 3H-cGMP degradation); assay type: biochemical; settings: PDE9-inhibiting activity (IC50 values), cGMP 1 μM, 30° C.
T1 construct: made in house
T1 sequence (O76083 whole entry): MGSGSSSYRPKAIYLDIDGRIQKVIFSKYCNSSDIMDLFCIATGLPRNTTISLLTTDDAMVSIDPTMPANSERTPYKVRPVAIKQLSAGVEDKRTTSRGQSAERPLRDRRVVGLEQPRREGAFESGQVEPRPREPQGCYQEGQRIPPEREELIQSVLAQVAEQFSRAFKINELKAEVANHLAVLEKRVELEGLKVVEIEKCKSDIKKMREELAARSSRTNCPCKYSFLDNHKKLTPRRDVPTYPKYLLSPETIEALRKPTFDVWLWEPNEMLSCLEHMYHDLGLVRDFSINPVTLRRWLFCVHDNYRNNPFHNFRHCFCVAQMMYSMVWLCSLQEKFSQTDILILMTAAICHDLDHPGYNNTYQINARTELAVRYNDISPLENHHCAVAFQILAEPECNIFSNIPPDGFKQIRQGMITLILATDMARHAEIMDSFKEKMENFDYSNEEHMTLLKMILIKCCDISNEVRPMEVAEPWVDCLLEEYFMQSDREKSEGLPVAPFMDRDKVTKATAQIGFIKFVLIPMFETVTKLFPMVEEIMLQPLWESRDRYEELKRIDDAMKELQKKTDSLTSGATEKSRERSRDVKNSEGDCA
Protocol: The PDE9 used in the present experiment was expressed/purified by the method as in, for example, Guipponi et al., and Fisher et., al. (Fisher, D. A., et al., J. Biol. Chem., 273: pp. 15559-15564 (1998), Guipponi, M., et al., Hum. Genet., 103: pp. 386-392 (1998)).
(2) Evaluation of PDE9-Inhibiting Activity
The PDE9-inhibiting activity was measured by the following method. That is, to a buffer solution containing tris(hydroxymethyl)aminomethane-hydrochloric acid (40 mM, pH 8.0), magnesium chloride (5 mM), and 2-mercaptoethanol (4 mM) were added cGMP (1 μM) and ^3H-cGMP (0.33 μCi/ml) to give a substrate buffer solution. A test substance solution and an enzyme solution which had been adjusted to an optimal concentration were added thereto to perform a reaction at 30° C. The enzyme reaction was stopped by the addition of Scintillation Proximity Assay (SPA) Beads (Perkin Elmer, USA) containing 5 mM 3-isobutyl-1-methylxanthine (IBMX). For the enzyme activity, the amount of 5′-GMP, which is a reaction degradation product bound to SPA beads, was measured with a TopCount microplate reader (Hewlett Packard, USA).
The inhibitory rate was calculated by taking the radioactivity of the control containing no test substance as (A), taking the radioactivity of the blank containing no enzyme as (B), and taking the radioactivity of the test substance as (C), and using the following equation. Inhibitory rate=100−{(C)−(B)/(A)−(B)}×100(%)

IC50 [2] [nM] | melting point | SMILES | ratio with increased urethra relaxation time during voiding (increase relative to the solvent administration group (vs vehicle)) [1] [%]
26 |  | COc1cc2c(cn1)N(C(=O)c1cc3[nH]c(=O)c4cnc(C5CCOC5)n4c3cc1C)CC2 (single isomer, unassigned) [Example 27(b)] | 181
5.6 |  | Cc1cc2c(cc1C(=O)N1CCc3cc(Br)cnc31)[nH]c(=O)c1cnc(C3CCOC3)n12 (single isomer, unassigned) [Example 29(b)] | 149
2.8 |  | COCc1cc2c(cc1C(=O)N1CCc3cc(Br)cnc31)[nH]c(=O)c1cnc(C3CCOC3)n12 (single isomer, unassigned) [Example 43(b)] | 138
14 | 331 to 333 °C | CCc1cnc2c(c1)CCN2C(=O)c1cc2[nH]c(=O)c3cnc(C4CCOCC4)n3c2cc1C [Example 13] | 
11 |  | COCc1cc2c(cc1C(=O)N1CCc3cc(OC)ncc31)[nH]c(=O)c1cnc(C3CCOC3)n12 (single isomer, unassigned; (+)) [Example 4(b), (+)-7-[(5-methoxy-2,3-dihydro-1H-pyrrolo[2,3-c]pyridin-1-yl)carbonyl]-8-(methoxymethyl)-1-(tetrahydrofuran-3-yl)imidazo[1,5-a]quinoxalin-4(5H)-one dihydrochloride] | 167
0.8 | 270 to 275 °C (dec.) | O=C(c1cc2[nH]c(=O)c3cnc(C4CCOCC4)n3c2cc1Cl)N1CCc2cc(Br)cnc21 [Example 48] | 
14 |  | COCc1cc2c(cc1C(=O)N1CCc3cc(C)cnc31)[nH]c(=O)c1cnc(C3CCOC3)n12 (single isomer, unassigned) [Example 25(b)] | 131

More lines, now with the values behind:

SMILES | IC50 [2] [nM] | melting point | ratio with increased urethra relaxation time during voiding (increase relative to the solvent administration group (vs vehicle)) [1] [%]
COCc1cc2c(cc1C(=O)N1Cc3c(F)ccc(F)c3C1)[nH]c(=O)c1cnc(C3CCOC3)n12.Cl (single isomer, unassigned) [Example 45(b)] | 8.9 |  | 141
Cc1cc2c(cc1C(=O)N1CCc3cc(F)c(F)cc31)[nH]c(=O)c1cnc(C3CCOC3)n12.Cl (single isomer, unassigned) [Example 30(b)] | 5.8 |  | 147
Cc1cc2c(cc1C(=O)N1CC(C)c3cc(Cl)ccc31)[nH]c(=O)c1cnc(C3CCOCC3)n12.Cl (stereo not shown) [Example 31] | 1.4 | 221 to 224 °C | 149
O=C(c1cc2[nH]c(=O)c3cnc(C4CCOCC4)n3c2cc1OCC1CCOC1)N1CCc2cc(Br)cnc21 (stereo not shown) [Example 1, 7-[(5-bromo-2,3-dihydro-1H-pyrrolo[2,3-b]pyridin-1-yl)carbonyl]-8-(tetrahydrofuran-3-ylmethoxy)-1-(tetrahydro-2H-pyran-4-yl)imidazo[1,5-a]quinoxalin-4(5H)-one] | 3.5 | 321 to 324 °C (dec.) | 
Cc1cc2c(cc1C(=O)N1CCc3cc(Br)cnc31)[nH]c(=O)c1nnc(CC3CC3)n12 [Example 24] | 17 | 268 to 271 °C | 
COC1CC(c2nnc3c(=O)[nH]c4cc(C(=O)N5CCc6cc(Cl)ccc65)c(C)cc4n23)C1.Cl (stereo not shown) [Example 8] | 2.8 | 200 to 202 °C | 
COCc1cc2c(cc1C(=O)N1Cc3cccc(F)c3C1)[nH]c(=O)c1cnc(C3CCOC3)n12 (stereo not shown) [Example 42] | 13 | 154 to 156 °C | 
COCc1cc2c(cc1C(=O)N1CCc3cc(Cl)ccc31)[nH]c(=O)c1nnc(C3CCC3)n12.Cl [Example 46] | 13 | 170 to 172 °C | 
